# Results published in patent publication US20050234026A1, “Method and agent for inducing apoptosis/cell death in leukemia cells” (priority 2003, published 2005).
# Like-named read-outs stand apart in the source and are kept apart here.
# What was measured:
# CLL cells = assay: Cytotoxicity of NOS inhibitors and NO quenchers/scavengers for freshly-isolated CLL cells in vitro; type: cell-based, human; details: for ED50 for CLL: Table 2, CLL cytotoxicity; for ED50 for CLL (mean ± SEM): CLL cytotoxicity, freshly-isolated patient cells in vitro; for EC50: read-out: EC50 (average concentration of compound that induced 50% CLL cell death), CLL cell death in vitro, ± SEM
# pure human enzyme NOS3 = pure human enzyme NOS3 (Homo sapiens, UniProt P29474); assay: Kd for enzyme inhibition, pure human NOS3; type: biochemical
# Chain of pure human enzyme NOS3 (P29474 whole entry): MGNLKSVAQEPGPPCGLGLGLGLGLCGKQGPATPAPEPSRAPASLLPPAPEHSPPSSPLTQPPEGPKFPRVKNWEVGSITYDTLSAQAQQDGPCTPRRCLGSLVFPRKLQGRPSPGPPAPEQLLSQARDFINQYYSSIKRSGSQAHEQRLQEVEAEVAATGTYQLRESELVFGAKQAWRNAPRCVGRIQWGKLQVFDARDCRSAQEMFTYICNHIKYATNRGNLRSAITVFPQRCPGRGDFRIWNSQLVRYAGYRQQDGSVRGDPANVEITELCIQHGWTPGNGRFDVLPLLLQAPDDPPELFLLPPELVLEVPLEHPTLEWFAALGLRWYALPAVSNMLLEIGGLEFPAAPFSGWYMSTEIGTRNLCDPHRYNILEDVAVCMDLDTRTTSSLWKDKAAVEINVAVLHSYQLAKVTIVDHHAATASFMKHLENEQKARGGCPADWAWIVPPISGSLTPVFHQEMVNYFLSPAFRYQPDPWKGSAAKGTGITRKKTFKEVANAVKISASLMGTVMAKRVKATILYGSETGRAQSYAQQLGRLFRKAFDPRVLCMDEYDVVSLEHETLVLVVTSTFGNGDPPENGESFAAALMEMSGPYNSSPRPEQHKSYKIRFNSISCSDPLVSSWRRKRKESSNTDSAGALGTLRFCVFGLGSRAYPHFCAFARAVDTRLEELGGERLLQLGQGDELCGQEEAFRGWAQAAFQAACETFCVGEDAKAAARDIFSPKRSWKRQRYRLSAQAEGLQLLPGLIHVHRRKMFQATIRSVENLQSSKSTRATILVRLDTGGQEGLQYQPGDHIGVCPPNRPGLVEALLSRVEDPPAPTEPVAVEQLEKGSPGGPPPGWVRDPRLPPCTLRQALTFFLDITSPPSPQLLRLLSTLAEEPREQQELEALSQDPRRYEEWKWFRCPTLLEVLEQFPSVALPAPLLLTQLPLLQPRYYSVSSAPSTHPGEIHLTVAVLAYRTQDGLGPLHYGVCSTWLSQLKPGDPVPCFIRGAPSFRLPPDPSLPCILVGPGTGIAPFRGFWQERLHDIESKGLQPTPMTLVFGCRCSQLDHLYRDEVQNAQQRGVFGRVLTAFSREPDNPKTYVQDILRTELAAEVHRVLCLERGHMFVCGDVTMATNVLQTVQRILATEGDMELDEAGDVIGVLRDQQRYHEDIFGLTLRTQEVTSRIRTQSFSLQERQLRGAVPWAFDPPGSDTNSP
# [1] = cited from earlier work
# [2] = test system: freshly-isolated CLL cells; assay: Apoptosis and death of freshly-isolated CLL cells after exogenous NO donors and drugs; type: cell-based, human; details: for ID50, CLL cell apoptosis and death: acute addition
# Excerpt: We next wanted to examine CLL cells. These malignant cells differ in many ways from ANLL and normal hematopoietic. In addition to their different lineage, they are unique in that they have a very low growth […], exist primary in the G0 phase of the cell cycle, and have defective apoptosis. […] NO also synergized with the ara-guanosine prodrug 2-amino-9-[…]-D-6-methoxy araguanine (also called 506U78).
# HL-60 and U937 cells = assay: Growth inhibition of acute nonlymphocytic leukemia cell lines by NO donors; type: cell-based, human
# Excerpt: To more closely examine the mechanism of toxicity for myeloid leukemia cells, we did work to determine whether the rate of NO delivery affected its growth inhibition of acute nonlymphocytic leukemia cells. We also wanted to determine whether the NO inhibition of cell growth is associated induction of apoptosis. We treated HL-60 and U937 cells with three compounds that generate the same amount of NO but different rates. […] Furthermore, NO-induced growth inhibition was associated with apoptosis in a rate and concentration-dependent fashion (Reference 39).
# [3] = normals and trials for septic shock and migraine; cited from earlier work
# [4] = test system: HL-60 myeloblastic leukemia cells; assay: Growth of HL-60 myeloblastic leukemia cells under NO-delivering drugs; type: cell-based, human; details: NO delivered from the drug
# Excerpt: While studying NO and macrophages progressed in the late 1980s, we hypothesized that NO produced in the BM would be a modulator of normal and leukemic hematopoiesis. […] The differentiated cells were vacuolated, and had increased expression of nonspecific esterase, CD11 b, and CD14.
# normal human BM cells = assay: Colony formation of normal human bone marrow cells / CD34+ cells in methylcellulose; type: cell-based; details: normal human BM cells in methylcellulose with erythropoietin and colony stimulating factors
# Experimental: The effects of NO on the growth and differentiation of normal human BM cells were analyzed (Reference 85). We felt that normal hematopoietic cells, like malignant hematopoietic cells, would be affected by NO. […] In retrospect, we think that the increase in CFU-GM by NO from SNP may be due to alterations in apoptosis secondary to changes in bcl-2 or caspases. None of the noted inhibitions were related to cGMP.
# [5] = target: recombinant purified human NOS1 (Homo sapiens, UniProt P29475); assay: Kd for enzyme inhibition, pure human NOS1; type: biochemical
# Chain of recombinant purified human NOS1 (P29475 whole entry): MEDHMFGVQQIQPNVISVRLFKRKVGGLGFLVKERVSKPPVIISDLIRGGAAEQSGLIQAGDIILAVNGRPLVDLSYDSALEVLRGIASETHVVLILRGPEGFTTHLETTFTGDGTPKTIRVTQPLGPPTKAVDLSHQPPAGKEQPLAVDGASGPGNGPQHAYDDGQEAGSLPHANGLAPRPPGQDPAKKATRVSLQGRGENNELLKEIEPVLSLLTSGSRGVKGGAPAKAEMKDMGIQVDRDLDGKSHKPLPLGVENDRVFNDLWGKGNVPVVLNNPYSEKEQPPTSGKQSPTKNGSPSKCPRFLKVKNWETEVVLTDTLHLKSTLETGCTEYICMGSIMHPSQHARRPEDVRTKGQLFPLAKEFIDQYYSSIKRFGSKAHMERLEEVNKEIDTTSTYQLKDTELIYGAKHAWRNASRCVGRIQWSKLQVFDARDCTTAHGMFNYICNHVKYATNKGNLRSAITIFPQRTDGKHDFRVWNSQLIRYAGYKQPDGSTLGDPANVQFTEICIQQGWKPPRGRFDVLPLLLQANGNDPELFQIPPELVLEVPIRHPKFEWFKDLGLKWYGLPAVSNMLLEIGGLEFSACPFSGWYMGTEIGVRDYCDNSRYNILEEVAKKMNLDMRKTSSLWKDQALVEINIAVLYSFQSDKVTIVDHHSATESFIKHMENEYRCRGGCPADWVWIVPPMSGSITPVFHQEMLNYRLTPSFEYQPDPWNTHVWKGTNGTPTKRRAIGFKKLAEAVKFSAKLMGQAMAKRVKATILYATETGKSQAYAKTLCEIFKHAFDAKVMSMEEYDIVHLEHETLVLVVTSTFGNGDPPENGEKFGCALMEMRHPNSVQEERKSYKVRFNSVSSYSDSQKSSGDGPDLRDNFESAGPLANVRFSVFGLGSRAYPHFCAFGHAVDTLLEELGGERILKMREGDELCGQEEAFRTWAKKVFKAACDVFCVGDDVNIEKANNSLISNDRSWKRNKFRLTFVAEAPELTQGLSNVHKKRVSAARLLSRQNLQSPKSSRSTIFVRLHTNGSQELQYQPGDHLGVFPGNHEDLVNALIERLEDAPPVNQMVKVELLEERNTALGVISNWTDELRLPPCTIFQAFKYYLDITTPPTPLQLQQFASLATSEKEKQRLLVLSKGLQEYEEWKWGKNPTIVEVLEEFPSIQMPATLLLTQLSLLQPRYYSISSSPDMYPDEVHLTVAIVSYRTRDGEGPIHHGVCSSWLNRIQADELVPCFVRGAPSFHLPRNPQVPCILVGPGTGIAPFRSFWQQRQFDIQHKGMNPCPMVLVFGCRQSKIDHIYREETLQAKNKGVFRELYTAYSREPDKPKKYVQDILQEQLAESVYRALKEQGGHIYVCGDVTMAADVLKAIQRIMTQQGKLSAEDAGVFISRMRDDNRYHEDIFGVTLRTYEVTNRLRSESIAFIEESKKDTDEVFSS
compound,measurement,setting,value
Cc1ccnc(N)c1 [2-amino-4-methyl pyridine],ED50 for CLL,CLL cells,>2000 µM
"O=[N+]([O-])c1cccc2cn[nH]c12 [7-NI, 7-Nitroindazole]",ED50 for CLL (mean ± SEM),CLL cells,131 ± 23 µM
same,EC50,CLL cells; Homo sapiens,131 ± 23 µM
"Cl.Cl.N=C(Nc1ccc(CCNCc2cccc(Cl)c2)cc1)c1cccs1 [ARL-17477, N-[4-(2-{[(3-chlorophenyl)methyl]amino}ethyl)phenyl]-2-thiophenecarboximide dihydrochloride]",Kd,pure human enzyme NOS3,1 µM
same,ED50 for CLL (mean ± SEM),CLL cells,11 ± 2 µM
same,ED50 for CLL,CLL cells,11 µM
same,EC50,CLL cells,11 ± 2 µM
"CC1(C)N([O])C(c2ccc(C(=O)O)cc2)=[N+]([O-])C1(C)C [Carboxy-PTIO, 2-(4-Carboxyphenyl)-4,4,5,5-tetramethylimidazoline-1-oxyl-3-oxide]",ED50 for CLL (mean ± SEM),CLL cells,227 ± 31 µM
same,EC50,CLL cells,227 ± 31 µM
NCCN(CCN)/[N+]([O-])=N/O [DETA-NO],half-life of NO delivery,[1],1200 min
same,Interaction with fludarabine in killing CLL cells,[2]; combination with fludarabine,acted synergistically
same,"ID50, CLL cell apoptosis and death",[2]; freshly-isolated CLL cells,188 µM
same,Interaction with other agents in killing CLL cells,"[2]; with 5-fluorouracil, gemcitabine, doxorubicin, chlorambucil or SN-38",did not enhance the activity
same,Inhibition of leukemia cell and colony growth (rank),HL-60 and U937 cells,most potent inhibitor
NCCNCCN [DETA],Effect on CLL cells (control for NO dependence),[2]; freshly-isolated CLL cells,had no effects
C/C1=C2/[N-][C@H]([C@H](CC(N)=O)[C@@]2(C)CCC(=O)NC[C@@H](C)OP(=O)([O-])O[C@H]2[C@@H](O)[C@@H](n3cnc4cc(C)c(C)cc43)O[C@@H]2CO)[C@]2(C)N=C(/C(C)=C3N=C(/C=C4N=C1[C@@H](CCC(N)=O)C\4(C)C)[C@@H](CCC(N)=O)[C@]\3(C)CC(N)=O)[C@@H](CCC(N)=O)[C@]2(C)CC(N)=O.[Co+3].[OH-] [Hydroxocobalamin],ED50 for CLL (mean ± SEM),CLL cells,148 ± 46 µM
same,EC50,CLL cells,148 ± 46 µM
CNC(=N)NCCC[C@H](N)C(=O)O [L-N^G-monomethylarginine],ED50 for CLL,CLL cells,>2000 µM
same,"Effects on cardiovascular, liver, or hematopoietic function",[3],no major effects
NC(=N[N+](=O)[O-])NCCCC(N)C(=O)O [L-N^G-nitroarginine],ED50 for CLL,CLL cells,>2000 µM
CNCCCCCCN(C)/[N+]([O-])=N/O [MAMA-NO],half-life of NO delivery,[1],2 min
same,"ID50, CLL cell apoptosis and death",[2]; freshly-isolated CLL cells,1658 µM
CCCN(CCCN)/[N+]([O-])=N/O [PAPA-NO],half-life of NO delivery,[1],30 min
same,"ID50, CLL cell apoptosis and death",[2]; freshly-isolated CLL cells,850 µM
[NH-]c1c[n+](N2CCOCC2)no1 [SIN-1],Growth of HL-60 cells,[4],potently inhibited
same,Development of marrow colonies,normal human BM cells,inhibited
"FC(F)(F)c1ccccc1-n1ccnc1 [TRIM, 1-(2-Trifluoromethylphenyl)imidazole]",ED50 for CLL (mean ± SEM),CLL cells,445 ± 46 µM
same,EC50,CLL cells; Homo sapiens,445 ± 46 µM
"C=CCC(=N)NCCC[C@H](N)C(=O)O [Vinyl-L-NIO, N^5-(1-imino-3-butenyl)-L-ornithine]",ED50 for CLL (mean ± SEM),CLL cells,747 ± 126 µM
same,EC50,CLL cells; Homo sapiens,747 ± 126 µM
same,ED50 for CLL,CLL cells,747 µM
same,Kd,[5],0.1 µM
Nc1nc(F)nc2c1ncn2[C@@H]1O[C@H](CO)[C@@H](O)[C@@H]1O [fludarabine],"ID50, CLL cell apoptosis and death",[2]; freshly-isolated CLL cells,2 µM
S-nitrosoacetylpenicillamine [SNAP],Growth of HL-60 cells,[4],potently inhibited
same,Development of marrow colonies,normal human BM cells,inhibited
